# Values joined by “and” are separate entries in the source; they are usually repeats but may differ in a detail not shown here. Equal values may be shown once. Toxic doses and inconclusive results are not listed.
# System: BDF1 mice, L1210 leukemia sc, survival T/C
# Assay: NCI In Vivo Anticancer Drug Screen. Data for tumor model L1210 Leukemia (subcutaneous) in B6D2F1 (BDF1) mice
# Conditions: higher = longer survival
# How it was run: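 Mice carrying transplanted tumors received test compounds, and survival or tumor size was measured. Values are the treated-group measurement (T) divided by that of the vehicle-treated control group (C).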
# [1] = endpoint: median survival time, dose: 39.0 mg/kg/injection, schedule: Q01DX Z (sc), vehicle: water
# [2] = endpoint: median survival time, dose: 39.0 mg/kg/injection, schedule: Q01DX Z (sc), vehicle: methylcellulose (MC)
# [3] = endpoint: median survival time, dose: 65.0 mg/kg/injection, schedule: Q01DX Z (sc), vehicle: methylcellulose (MC)
# [4] = endpoint: median survival time, dose: 108.0 mg/kg/injection, schedule: Q01DX Z (sc), vehicle: methylcellulose (MC)
# [5] = endpoint: median survival time, dose: 180.0 mg/kg/injection, schedule: Q01DX Z (sc), vehicle: methylcellulose (MC)
# [6] = endpoint: median survival time, dose: 300.0 mg/kg/injection, schedule: Q01DX Z (sc), vehicle: methylcellulose (MC)
smiles,measurement,setting,value
O=C(Nc1ccc(C2=NCCN2)cc1)c1ccc(C(=O)Nc2ccc(C3=NCCN3)cc2)cc1,T/C,"endpoint: median survival time, dose: 3.0 mg/kg/injection, schedule: Q01DX Z (sc), vehicle: saline",100 % of control
same,T/C,"endpoint: median survival time, dose: 5.0 mg/kg/injection, schedule: Q01DX Z (sc), vehicle: saline",100 % of control and 104 % of control
same,T/C,"endpoint: median survival time, dose: 8.4 mg/kg/injection, schedule: Q01DX Z (sc), vehicle: saline",109 % of control
same,T/C,"endpoint: median survival time, dose: 14.0 mg/kg/injection, schedule: Q01DX Z (sc), vehicle: saline",104 % of control
same,T/C,"endpoint: median survival time, dose: 23.0 mg/kg/injection, schedule: Q01DX Z (ip), vehicle: water",100 % of control
same,T/C,"endpoint: median survival time, dose: 23.0 mg/kg/injection, schedule: Q01DX Z (sc), vehicle: saline",104 % of control and 109 % of control
same,T/C,"endpoint: median survival time, dose: 39.0 mg/kg/injection, schedule: Q01DX Z (ip), vehicle: water",100 % of control
same,T/C,"endpoint: median survival time, dose: 39.0 mg/kg/injection, schedule: Q01DX Z (sc), vehicle: saline",100 % of control
same,T/C,[1],100 % of control
same,T/C,"endpoint: median survival time, dose: 65.0 mg/kg/injection, schedule: Q01DX Z (ip), vehicle: water",110 % of control
same,T/C,"endpoint: median survival time, dose: 65.0 mg/kg/injection, schedule: Q01DX Z (sc), vehicle: saline",100 % of control and 104 % of control
same,T/C,"endpoint: median survival time, dose: 108.0 mg/kg/injection, schedule: Q01DX Z (sc), vehicle: saline",100 % of control and 104 % of control
same,T/C,"endpoint: median survival time, dose: 180.0 mg/kg/injection, schedule: Q01DX Z (ip), vehicle: water",115 % of control
same,T/C,"endpoint: median survival time, dose: 180.0 mg/kg/injection, schedule: Q01DX Z (sc), vehicle: saline",104 % of control
same,T/C,"endpoint: median survival time, dose: 200.0 mg/kg/injection, schedule: Q01DX Z (sc), vehicle: water",110 % of control and 100 % of control
same,T/C,"endpoint: median survival time, dose: 300.0 mg/kg/injection, schedule: Q01DX Z (ip), vehicle: water",185 % of control
same,T/C,"endpoint: median survival time, dose: 300.0 mg/kg/injection, schedule: Q01DX Z (sc), vehicle: saline",104 % of control
same,T/C,"endpoint: median survival time, dose: 300.0 mg/kg/injection, schedule: Q01DX Z (sc), vehicle: water",100 % of control
same,T/C,"endpoint: median survival time, dose: 400.0 mg/kg/injection, schedule: Q01DX Z (sc), vehicle: water",205 % of control and 105 % of control
same,T/C,"endpoint: median survival time, dose: 800.0 mg/kg/injection, schedule: Q01DX Z (sc), vehicle: water",170 % of control and 220 % of control
CN=C(NC)c1ccc(NC(=O)c2ccc(C(=O)Nc3ccc(C(=NC)NC)cc3)c(Cl)c2)cc1,T/C,[2],100 % of control
same,T/C,[3],100 % of control
same,T/C,[4],100 % of control
same,T/C,[5],105 % of control
same,T/C,[6],100 % of control
CCCCCCCCCCCCCCCCNC(=S)N/N=C/c1ccccc1OC,T/C,"endpoint: median survival time, dose: 78.0 mg/kg/injection, schedule: Q01DX Z (sc), vehicle: water",100 % of control
same,T/C,"endpoint: median survival time, dose: 130.0 mg/kg/injection, schedule: Q01DX Z (sc), vehicle: water",105 % of control
same,T/C,"endpoint: median survival time, dose: 216.0 mg/kg/injection, schedule: Q01DX Z (sc), vehicle: water",111 % of control
same,T/C,"endpoint: median survival time, dose: 360.0 mg/kg/injection, schedule: Q01DX Z (sc), vehicle: water",105 % of control
same,T/C,"endpoint: median survival time, dose: 600.0 mg/kg/injection, schedule: Q01DX Z (sc), vehicle: water",100 % of control
CC[n+]1c(-c2ccccc2)c2cc(N)ccc2c2ccc(N)cc21,T/C,"endpoint: median survival time, dose: 39.0 mg/kg/injection, schedule: Q01DX Z (sc), vehicle: carboxymethylcellulose (CMC)",110 % of control
same,T/C,"endpoint: median survival time, dose: 65.0 mg/kg/injection, schedule: Q01DX Z (sc), vehicle: carboxymethylcellulose (CMC)",115 % of control
same,T/C,"endpoint: median survival time, dose: 108.0 mg/kg/injection, schedule: Q01DX Z (sc), vehicle: carboxymethylcellulose (CMC)",95 % of control
O=c1[nH]cnc2[nH]ncc12,T/C,"endpoint: mean survival time, dose: 20.0 mg/kg/injection, schedule: Q01DX001 (ip), vehicle: saline",97 % of control
same,T/C,"endpoint: mean survival time, dose: 30.0 mg/kg/injection, schedule: Q01DX001 (ip), vehicle: saline",101 % of control
same,T/C,"endpoint: mean survival time, dose: 40.0 mg/kg/injection, schedule: Q01DX001 (ip), vehicle: saline",98 % of control
same,T/C,"endpoint: mean survival time, dose: 80.0 mg/kg/injection, schedule: Q01DX001 (ip), vehicle: saline",98 % of control
same,T/C,"endpoint: median survival time, dose: 10.0 mg/kg/injection, schedule: Q01DX009 (ip), vehicle: saline",99 % of control (2×) and 100 % of control
same,T/C,"endpoint: median survival time, dose: 20.0 mg/kg/injection, schedule: Q01DX001 (ip), vehicle: saline",90 % of control
same,T/C,"endpoint: median survival time, dose: 20.0 mg/kg/injection, schedule: Q01DX009 (ip), vehicle: saline",100 % of control and 101 % of control (2×)
same,T/C,"endpoint: median survival time, dose: 30.0 mg/kg/injection, schedule: Q01DX001 (ip), vehicle: saline",100 % of control
same,T/C,"endpoint: median survival time, dose: 40.0 mg/kg/injection, schedule: Q01DX001 (ip), vehicle: saline",100 % of control
same,T/C,"endpoint: median survival time, dose: 40.0 mg/kg/injection, schedule: Q01DX009 (ip), vehicle: saline",99 % of control (2×) and 100 % of control
same,T/C,"endpoint: median survival time, dose: 80.0 mg/kg/injection, schedule: Q01DX001 (ip), vehicle: saline",100 % of control
COc1cc([C@@H]2c3cc4c(cc3[C@H](OC(=O)CCCC(=O)O)[C@H]3COC(=O)[C@H]23)OCO4)cc(OC)c1OC,T/C,"endpoint: median survival time, dose: 5.0 mg/kg/injection, schedule: Q01DX Z (sc), vehicle: water",100 % of control
same,T/C,"endpoint: median survival time, dose: 8.4 mg/kg/injection, schedule: Q01DX Z (sc), vehicle: water",109 % of control
same,T/C,"endpoint: median survival time, dose: 14.0 mg/kg/injection, schedule: Q01DX Z (sc), vehicle: water",113 % of control
same,T/C,"endpoint: median survival time, dose: 23.0 mg/kg/injection, schedule: Q01DX Z (sc), vehicle: water",113 % of control
same,T/C,[1],118 % of control
same,T/C,"endpoint: median survival time, dose: 65.0 mg/kg/injection, schedule: Q01DX Z (sc), vehicle: water",118 % of control
same,T/C,"endpoint: median survival time, dose: 108.0 mg/kg/injection, schedule: Q01DX Z (sc), vehicle: water",118 % of control
O[C@H](CN1CC1)[C@@H](O)CN1CC1,T/C,"endpoint: median survival time, dose: 0.14 mg/kg/injection, schedule: Q01DX Z (sc), vehicle: saline",100 % of control
same,T/C,"endpoint: median survival time, dose: 0.22 mg/kg/injection, schedule: Q01DX Z (sc), vehicle: saline",111 % of control
same,T/C,"endpoint: median survival time, dose: 0.23 mg/kg/injection, schedule: Q01DX Z (sc), vehicle: saline",111 % of control
same,T/C,"endpoint: median survival time, dose: 0.6 mg/kg/injection, schedule: Q01DX Z (sc), vehicle: saline",177 % of control
same,T/C,"endpoint: median survival time, dose: 0.65 mg/kg/injection, schedule: Q01DX Z (sc), vehicle: saline",183 % of control
same,T/C,"endpoint: median survival time, dose: 1.0 mg/kg/injection, schedule: Q01DX Z (sc), vehicle: saline",172 % of control
same,T/C,"endpoint: median survival time, dose: 1.08 mg/kg/injection, schedule: Q01DX Z (sc), vehicle: saline",155 % of control
same,T/C,"endpoint: median survival time, dose: 2.8 mg/kg/injection, schedule: Q01DX Z (sc), vehicle: saline",122 % of control
[I][Hg][CH2]C1COC([CH2][Hg][I])CO1 (centres undefined),T/C,"endpoint: median survival time, dose: 14.0 mg/kg/injection, schedule: Q01DX Z (sc), vehicle: other",100 % of control
same,T/C,"endpoint: median survival time, dose: 23.0 mg/kg/injection, schedule: Q01DX Z (sc), vehicle: other",100 % of control
same,T/C,"endpoint: median survival time, dose: 39.0 mg/kg/injection, schedule: Q01DX Z (sc), vehicle: other",105 % of control
same,T/C,"endpoint: median survival time, dose: 65.0 mg/kg/injection, schedule: Q01DX Z (sc), vehicle: other",100 % of control
same,T/C,"endpoint: median survival time, dose: 108.0 mg/kg/injection, schedule: Q01DX Z (sc), vehicle: other",111 % of control
C[n+]1c2ccccc2c(Nc2ccc(NS(=O)(=O)CCCCN=C(N)N)cc2)c2ccc(N)cc21,T/C,"endpoint: median survival time, dose: 1.5 mg/kg/injection, schedule: Q01DX009 (ip), vehicle: water",110 % of control
same,T/C,"endpoint: median survival time, dose: 3.0 mg/kg/injection, schedule: Q01DX009 (ip), vehicle: water",120 % of control
same,T/C,"endpoint: median survival time, dose: 6.0 mg/kg/injection, schedule: Q01DX009 (ip), vehicle: water",151 % of control
same,T/C,"endpoint: median survival time, dose: 12.0 mg/kg/injection, schedule: Q01DX009 (ip), vehicle: water",173 % of control
O=C(O)CCCc1ccc(N(CCCl)CCCl)cc1,T/C,"endpoint: median survival time, dose: 8.4 mg/kg/injection, schedule: Q01DX Z (sc), vehicle: methylcellulose (MC)",100 % of control
same,T/C,"endpoint: median survival time, dose: 14.0 mg/kg/injection, schedule: Q01DX Z (sc), vehicle: methylcellulose (MC)",100 % of control
same,T/C,"endpoint: median survival time, dose: 23.0 mg/kg/injection, schedule: Q01DX Z (sc), vehicle: methylcellulose (MC)",100 % of control
same,T/C,[2],110 % of control
CCOC(=O)NP(=O)(N1CC1(C)C)N1CC1(C)C (centres undefined),T/C,[3],91 % of control
same,T/C,[4],100 % of control
same,T/C,"endpoint: median survival time, dose: 130.0 mg/kg/injection, schedule: Q01DX Z (sc), vehicle: methylcellulose (MC)",95 % of control
same,T/C,[5],100 % of control
same,T/C,"endpoint: median survival time, dose: 216.0 mg/kg/injection, schedule: Q01DX Z (sc), vehicle: methylcellulose (MC)",100 % of control
same,T/C,[6],100 % of control
same,T/C,"endpoint: median survival time, dose: 500.0 mg/kg/injection, schedule: Q01DX Z (sc), vehicle: methylcellulose (MC)",100 % of control
